Experimental data as given in the supplement of paper PMC10307832.

Key:
Test in all cases: relative viability (nuclei count vs DMSO), 5 days (fraction); higher = more cells survive
MK-8033 + Linsitinib = compound: Cn1cc(-c2cnc3ccc4ccc(CS(=O)(=O)NCc5ccccn5)cc4c(=O)c3c2)cn1 [MK-8033] + C[C@]1(O)C[C@@H](c2nc(-c3ccc4ccc(-c5ccccc5)nc4c3)c3c(N)nccn32)C1 [Linsitinib] (partner 1 µM)
Procedure, shortened: (§1)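 Lung cancer cell lines in 1536-well plates got either a single drug or a fixed anchor-drug dose together with five library-drug doses (not always all listed) in √10 steps, by pin tool, on the day after seeding. Nuclei were counted after 5 days, and relative viability is the treated-to-vehicle ratio of nuclei counts. Values are medians of duplicate plates.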

MK-8033 + Navitoclax = compound: Cn1cc(-c2cnc3ccc4ccc(CS(=O)(=O)NCc5ccccn5)cc4c(=O)c3c2)cn1 [MK-8033] + CC1(C)CCC(c2ccc(Cl)cc2)=C(CN2CCN(c3ccc(C(=O)NS(=O)(=O)c4ccc(N[C@H](CCN5CCOCC5)CSc5ccccc5)c(S(=O)(=O)C(F)(F)F)c4)cc3)CC2)C1 [Navitoclax] (partner 0.5 µM)
Procedure, shortened: as §1

RU-SKI 43 + Pictilisib = compound: CC[C@@H](C)CNCC(=O)N1CCC2=C([C@@H]1COC3=CC=CC(=C3)C)C=CS2 [RU-SKI 43] + CS(=O)(=O)N1CCN(Cc2cc3nc(-c4cccc5[nH]ncc45)nc(N4CCOCC4)c3s2)CC1 [Pictilisib] (partner 1 µM)
Procedure, shortened: as §1

RU-SKI 43 + Palbociclib = compound: CC[C@@H](C)CNCC(=O)N1CCC2=C([C@@H]1COC3=CC=CC(=C3)C)C=CS2 [RU-SKI 43] + CC(=O)c1c(C)c2cnc(Nc3ccc(N4CCNCC4)cn3)nc2n(C2CCCC2)c1=O [Palbociclib] (partner 0.5 µM)
Procedure, shortened: as §1

SK-MES-1
relative viability (MK-8033 + Linsitinib; first compound 0.02 µM): 1.06
relative viability (MK-8033 + Linsitinib; first compound 0.06325 µM): 0.995
relative viability (MK-8033 + Linsitinib; first compound 0.2 µM): 1.04
relative viability (MK-8033 + Linsitinib; first compound 0.6325 µM): 1.09
relative viability (MK-8033 + Linsitinib; first compound 2 µM): 1.09
relative viability (MK-8033 + Navitoclax; first compound 0.02 µM): 1.23
relative viability (MK-8033 + Navitoclax; first compound 0.06325 µM): 1.16
relative viability (MK-8033 + Navitoclax; first compound 0.2 µM): 1.16
relative viability (MK-8033 + Navitoclax; first compound 0.6325 µM): 1.23
relative viability (MK-8033 + Navitoclax; first compound 2 µM): 1.18
relative viability (RU-SKI 43 + Pictilisib; first compound 0.1 µM): 0.34
relative viability (RU-SKI 43 + Pictilisib; first compound 0.3162 µM): 0.332
relative viability (RU-SKI 43 + Pictilisib; first compound 1 µM): 0.366
relative viability (RU-SKI 43 + Pictilisib; first compound 3.162 µM): 0.444
relative viability (RU-SKI 43 + Pictilisib; first compound 10 µM): 0.336
relative viability (RU-SKI 43 + Palbociclib; first compound 0.1 µM): 0.292
relative viability (RU-SKI 43 + Palbociclib; first compound 0.3162 µM): 0.304
relative viability (RU-SKI 43 + Palbociclib; first compound 1 µM): 0.34
relative viability (RU-SKI 43 + Palbociclib; first compound 3.162 µM): 0.344
relative viability (RU-SKI 43 + Palbociclib; first compound 10 µM): 0.26

NCI-H2342
relative viability (RU-SKI 43 + Palbociclib; first compound 0.1 µM): 0.524
relative viability (RU-SKI 43 + Palbociclib; first compound 1 µM): 0.547
relative viability (RU-SKI 43 + Palbociclib; first compound 3.162 µM): 0.524
relative viability (RU-SKI 43 + Palbociclib; first compound 10 µM): 0.488

NCI-H1299
relative viability (MK-8033 + Linsitinib; first compound 0.02 µM): 0.997
relative viability (MK-8033 + Linsitinib; first compound 0.06325 µM): 0.997
relative viability (MK-8033 + Linsitinib; first compound 0.2 µM): 0.958
relative viability (MK-8033 + Linsitinib; first compound 0.6325 µM): 1.05
relative viability (MK-8033 + Linsitinib; first compound 2 µM): 0.988
relative viability (MK-8033 + Navitoclax; first compound 0.02 µM): 1.04
relative viability (MK-8033 + Navitoclax; first compound 0.06325 µM): 1.03
relative viability (MK-8033 + Navitoclax; first compound 0.2 µM): 1.03
relative viability (MK-8033 + Navitoclax; first compound 0.6325 µM): 1.07
relative viability (MK-8033 + Navitoclax; first compound 2 µM): 1.01
relative viability (RU-SKI 43 + Pictilisib; first compound 0.1 µM): 0.823
relative viability (RU-SKI 43 + Pictilisib; first compound 0.3162 µM): 1.05
relative viability (RU-SKI 43 + Pictilisib; first compound 1 µM): 0.709
relative viability (RU-SKI 43 + Pictilisib; first compound 3.162 µM): 0.789
relative viability (RU-SKI 43 + Pictilisib; first compound 10 µM): 0.686

NCI-H1650
relative viability (MK-8033 + Navitoclax; first compound 0.02 µM): 1.21
relative viability (MK-8033 + Navitoclax; first compound 0.06325 µM): 1.13
relative viability (MK-8033 + Navitoclax; first compound 0.2 µM): 1.11
relative viability (MK-8033 + Navitoclax; first compound 0.6325 µM): 1.11
relative viability (MK-8033 + Navitoclax; first compound 2 µM): 1.18
relative viability (RU-SKI 43 + Pictilisib; first compound 0.1 µM): 0.561
relative viability (RU-SKI 43 + Pictilisib; first compound 0.3162 µM): 0.579
relative viability (RU-SKI 43 + Pictilisib; first compound 1 µM): 0.616
relative viability (RU-SKI 43 + Pictilisib; first compound 3.162 µM): 0.739
relative viability (RU-SKI 43 + Pictilisib; first compound 10 µM): 0.382
relative viability (RU-SKI 43 + Palbociclib; first compound 0.1 µM): 0.375
relative viability (RU-SKI 43 + Palbociclib; first compound 0.3162 µM): 0.346
relative viability (RU-SKI 43 + Palbociclib; first compound 1 µM): 0.338
relative viability (RU-SKI 43 + Palbociclib; first compound 3.162 µM): 0.351
relative viability (RU-SKI 43 + Palbociclib; first compound 10 µM): 0.302

NCI-H647
relative viability (MK-8033 + Linsitinib; first compound 0.02 µM): 1.17
relative viability (MK-8033 + Linsitinib; first compound 0.06325 µM): 0.88
relative viability (MK-8033 + Linsitinib; first compound 0.2 µM): 0.994
relative viability (MK-8033 + Linsitinib; first compound 0.6325 µM): 1.14
relative viability (MK-8033 + Linsitinib; first compound 2 µM): 1.04
relative viability (MK-8033 + Navitoclax; first compound 0.02 µM): 1.11
relative viability (MK-8033 + Navitoclax; first compound 0.06325 µM): 1.01
relative viability (MK-8033 + Navitoclax; first compound 0.2 µM): 1.09
relative viability (MK-8033 + Navitoclax; first compound 0.6325 µM): 1.04
relative viability (MK-8033 + Navitoclax; first compound 2 µM): 0.999
relative viability (RU-SKI 43 + Pictilisib; first compound 0.1 µM): 0.392
relative viability (RU-SKI 43 + Pictilisib; first compound 1 µM): 0.547
relative viability (RU-SKI 43 + Pictilisib; first compound 3.162 µM): 0.428
relative viability (RU-SKI 43 + Pictilisib; first compound 10 µM): 0.412
relative viability (RU-SKI 43 + Palbociclib; first compound 0.1 µM): 0.472
relative viability (RU-SKI 43 + Palbociclib; first compound 0.3162 µM): 0.371
relative viability (RU-SKI 43 + Palbociclib; first compound 1 µM): 0.382
relative viability (RU-SKI 43 + Palbociclib; first compound 3.162 µM): 0.471
relative viability (RU-SKI 43 + Palbociclib; first compound 10 µM): 0.287

NCI-H1944
relative viability (MK-8033 + Linsitinib; first compound 0.02 µM): 1.2
relative viability (MK-8033 + Linsitinib; first compound 0.2 µM): 1.12
relative viability (MK-8033 + Linsitinib; first compound 0.6325 µM): 1.23
relative viability (MK-8033 + Linsitinib; first compound 2 µM): 1.37
relative viability (MK-8033 + Navitoclax; first compound 0.02 µM): 1.15
relative viability (MK-8033 + Navitoclax; first compound 0.2 µM): 0.991
relative viability (MK-8033 + Navitoclax; first compound 0.6325 µM): 1.02
relative viability (MK-8033 + Navitoclax; first compound 2 µM): 1.03
relative viability (RU-SKI 43 + Pictilisib; first compound 0.1 µM): 0.336
relative viability (RU-SKI 43 + Pictilisib; first compound 0.3162 µM): 0.317
relative viability (RU-SKI 43 + Pictilisib; first compound 1 µM): 0.372
relative viability (RU-SKI 43 + Pictilisib; first compound 3.162 µM): 0.353
relative viability (RU-SKI 43 + Pictilisib; first compound 10 µM): 0.351
relative viability (RU-SKI 43 + Palbociclib; first compound 0.1 µM): 0.34
relative viability (RU-SKI 43 + Palbociclib; first compound 0.3162 µM): 0.334
relative viability (RU-SKI 43 + Palbociclib; first compound 1 µM): 0.328
relative viability (RU-SKI 43 + Palbociclib; first compound 3.162 µM): 0.316
relative viability (RU-SKI 43 + Palbociclib; first compound 10 µM): 0.303

NCI-H23
relative viability (MK-8033 + Linsitinib; first compound 0.02 µM): 0.508
relative viability (MK-8033 + Linsitinib; first compound 0.06325 µM): 0.576
relative viability (MK-8033 + Linsitinib; first compound 0.2 µM): 0.407
relative viability (MK-8033 + Linsitinib; first compound 0.6325 µM): 0.599
relative viability (MK-8033 + Linsitinib; first compound 2 µM): 0.508
relative viability (MK-8033 + Navitoclax; first compound 0.02 µM): 0.938
relative viability (MK-8033 + Navitoclax; first compound 0.06325 µM): 0.777
relative viability (MK-8033 + Navitoclax; first compound 0.2 µM): 0.682
relative viability (MK-8033 + Navitoclax; first compound 0.6325 µM): 0.779
relative viability (MK-8033 + Navitoclax; first compound 2 µM): 0.837
relative viability (RU-SKI 43 + Pictilisib; first compound 0.1 µM): 0.441
relative viability (RU-SKI 43 + Pictilisib; first compound 0.3162 µM): 0.497
relative viability (RU-SKI 43 + Pictilisib; first compound 1 µM): 0.536
relative viability (RU-SKI 43 + Pictilisib; first compound 3.162 µM): 0.492
relative viability (RU-SKI 43 + Pictilisib; first compound 10 µM): 0.468
relative viability (RU-SKI 43 + Palbociclib; first compound 0.1 µM): 0.464
relative viability (RU-SKI 43 + Palbociclib; first compound 0.3162 µM): 0.515
relative viability (RU-SKI 43 + Palbociclib; first compound 1 µM): 0.548
relative viability (RU-SKI 43 + Palbociclib; first compound 3.162 µM): 0.568
relative viability (RU-SKI 43 + Palbociclib; first compound 10 µM): 0.47

NCI-H1792
relative viability (MK-8033 + Linsitinib; first compound 0.02 µM): 0.468
relative viability (MK-8033 + Linsitinib; first compound 0.06325 µM): 0.528
relative viability (MK-8033 + Linsitinib; first compound 0.2 µM): 0.527
relative viability (MK-8033 + Linsitinib; first compound 0.6325 µM): 0.454
relative viability (MK-8033 + Linsitinib; first compound 2 µM): 0.523
relative viability (MK-8033 + Navitoclax; first compound 0.02 µM): 0.826
relative viability (MK-8033 + Navitoclax; first compound 0.06325 µM): 0.649
relative viability (MK-8033 + Navitoclax; first compound 0.2 µM): 0.593
relative viability (MK-8033 + Navitoclax; first compound 0.6325 µM): 0.61
relative viability (MK-8033 + Navitoclax; first compound 2 µM): 0.653
relative viability (RU-SKI 43 + Pictilisib; first compound 0.1 µM): 0.284
relative viability (RU-SKI 43 + Pictilisib; first compound 0.3162 µM): 0.351
relative viability (RU-SKI 43 + Pictilisib; first compound 1 µM): 0.277
relative viability (RU-SKI 43 + Pictilisib; first compound 3.162 µM): 0.281
relative viability (RU-SKI 43 + Pictilisib; first compound 10 µM): 0.304
relative viability (RU-SKI 43 + Palbociclib; first compound 0.1 µM): 0.692
relative viability (RU-SKI 43 + Palbociclib; first compound 0.3162 µM): 0.764
relative viability (RU-SKI 43 + Palbociclib; first compound 1 µM): 0.685
relative viability (RU-SKI 43 + Palbociclib; first compound 3.162 µM): 0.698
relative viability (RU-SKI 43 + Palbociclib; first compound 10 µM): 0.662

NCI-H358
relative viability (MK-8033 + Linsitinib; first compound 0.02 µM): 0.826
relative viability (MK-8033 + Linsitinib; first compound 0.06325 µM): 0.704
relative viability (MK-8033 + Linsitinib; first compound 0.2 µM): 0.731
relative viability (MK-8033 + Linsitinib; first compound 0.6325 µM): 0.658
relative viability (MK-8033 + Linsitinib; first compound 2 µM): 0.651
relative viability (RU-SKI 43 + Pictilisib; first compound 0.1 µM): 0.291
relative viability (RU-SKI 43 + Pictilisib; first compound 0.3162 µM): 0.315
relative viability (RU-SKI 43 + Pictilisib; first compound 1 µM): 0.332
relative viability (RU-SKI 43 + Pictilisib; first compound 3.162 µM): 0.336
relative viability (RU-SKI 43 + Pictilisib; first compound 10 µM): 0.286
relative viability (RU-SKI 43 + Palbociclib; first compound 0.1 µM): 0.129
relative viability (RU-SKI 43 + Palbociclib; first compound 0.3162 µM): 0.152
relative viability (RU-SKI 43 + Palbociclib; first compound 1 µM): 0.15
relative viability (RU-SKI 43 + Palbociclib; first compound 3.162 µM): 0.128
relative viability (RU-SKI 43 + Palbociclib; first compound 10 µM): 0.128

NCI-H1648
relative viability (RU-SKI 43 + Palbociclib; first compound 0.1 µM): 0.284
relative viability (RU-SKI 43 + Palbociclib; first compound 0.3162 µM): 0.26
relative viability (RU-SKI 43 + Palbociclib; first compound 1 µM): 0.257
relative viability (RU-SKI 43 + Palbociclib; first compound 3.162 µM): 0.304
relative viability (RU-SKI 43 + Palbociclib; first compound 10 µM): 0.271
